Tests used:
[1] = grade 3/4 toxic events, N = 246, not supplemented
Protocol: One to two weeks prior to administration of ALIMTA urine is collected and blood is drawn from a human subject; and vitamin metabolite levels, methylmalonic acid and homocysteine, are determined. Homocysteine levels are determined in blood by a fluorescent polarization immunoassay kit manufactured by Abbot Laboratories. Methylmalonic acid levels are determined by urine levels using a 24 hour urine collection kit available from Biolab Medical Unit (a United Kingdom company). Additionally urine and blood may be collected one week prior to administration of ALIMTA (after at least 5 days of folic acid supplementation and at least 1 week vitamin B12 supplementation), and up to 4 days prior to every cycle.
For purposes of this study, patients should take oral folic acid daily beginning approximately 1 to 3 weeks before treatment with ALIMTA plus cisplatin or cisplatin alone and continuing daily until discontinuation from study therapy.
Vitamin B12 will be obtained and administered as a 1000 μg intramuscular injection. A vitamin B12 injection must be administered approximately 1 to 3 weeks before treatment with ALIMTA and should be repeated approximately every 9 weeks until the patient discontinues from study therapy.
Folic acid supplementation, 350-600 μg or equivalent should be taken orally daily beginning approximately 1 to 3 weeks prior to the first dose of MTA plus cisplatin and continue daily until the patient discontinues from study therapy. A vitamin B12 injection, 1000 μg, must be given intramuscularly approximately 1 to 3 weeks prior to the first dose of ALIMTA and should be repeated approximately every 9 weeks until the patient discontinues from study therapy.
The data to be compared are: • 1) Patient numbers and baseline demographic data for those supplemented from baseline. • 2) Homocysteine and methylmalonic acid levels, levels at baseline, prior to first dose, prior to second dose, and prior to each therapy cycle depending of the type of cancer under study. • 3) Grade 3 and 4 hematologic toxicity in these fully supplemented patients. • 4) Grade 3 and 4 nonhematologic toxicity in these fully supplemented patients.
Cyanocobalamin is used as the methylmalonic acid lowering agent in these studies.

[2] = system: human MX-1 breast carcinoma; assay: Tumor growth delay in human MX-1 breast carcinoma xenograft in female nude mice; format: in vivo
Protocol: To assess the effect of a methylmalonic acid lowering agent, alone or in combination with folic acid on the antitumor efficacy of an antifolate in a human tumor xenograft model, female nude mice bearing human MX-1 breast carcinoma were treated with ALIMTA alone or along with super-physiologic doses of folic acid or vitamin B12 (cobalamin).
(§1) The animals were maintained on sterilized standard lab chow ad libitum and sterilized water ad libitum. The human MX-1 tumor cells (5×10^6) obtained from donor tumors were implanted subcutaneously in a thigh of female nude mice 8- to 10-weeks old. Beginning on day 7 post tumor cell implantation, the animals were treated with ALIMTA (100 mg/kg or 150 mg/kg) once daily on days 7 through 11 and 14 through 18 by intraperitoneal injection alone or along with folic acid (6 mg/kg or 60 mg/kg) and/or vitamin B12 (165 mg/kg) by intraperitoneal injection on the same schedule.
(§2) Tumor response was monitored by tumor volume measurements twice weekly over the course of the experiment. Toxicity was monitored by body weight measurements made at the same time as the tumor volume measurements. Tumor growth delay was the difference in days for the treated and the controls tumors to reach 1000 mm^3.

[3] = Clinical response to chemotherapy in chemonaive patients; format: in vivo, human; details: responders out of group size
Description: Additionally, sixty-two chemonaive patients requiring chemotherapeutic treatment were divided into two groups.

[4] = Body weight as general measure of toxicity in MX-1 tumor-bearing nude mice
Protocol: as §1, §2
Body weight was used as a general measure of toxicity for each of the treatment regimens. The body weight loss pattern reflected the treatment regimens with weight decrease during the treatment times of days 7 through 11 and 14 through 18 with some weight recovery during the intervening two days. The weight loss due to ALITMA was dose dependent but overall minor (3%).

With `Nc1nc2[nH]cc(CCc3ccc(C(=O)N[C@@H](CCC(=O)O)C(=O)O)cc3)c2c(=O)[nH]1` [ALIMTA, pemetrexed disodium] the “Percent of occurrences prior to B12/folic acid treatment: Diarrhea” value [1] was 6%, the “Percent of occurrences prior to B12/folic acid treatment: Hematologic Toxicity/Non-Hematologic Toxicity” value [1] was 37% and the “Percent of occurrences prior to B12/folic acid treatment: Mucositis” value [1] was 5%. For the same compound, the “Percent of occurrences prior to B12/folic acid treatment: Neutropenia” value [1] was 32%, the “Percent of occurrences prior to B12/folic acid treatment: Neutropenia and Diarrhea” value [1] was 3% and the “Percent of occurrences prior to B12/folic acid treatment: Neutropenia and Infection” value [1] was 2%. The “Percent of occurrences prior to B12/folic acid treatment: Neutropenia and Mucositis” value [1] was 3%, the Tumor growth delay ([2]; ALIMTA 100 mg/kg ip once daily days 7-11 and 14-18, alone, time to reach 1000 mm^3 vs controls) was 17 days and the Tumor growth delay ([2]; ALIMTA 150 mg/kg ip once daily days 7-11 and 14-18, alone) was 21 days. The “Patients who responded to the chemotherapy” value [3] was 1 out of 17 and the Body weight loss ([4]; mouse, in vivo) was 3%.

In the case of `Nc1nc2ncc(CNc3ccc(C(=O)N[C@@H](CCC(=O)O)C(=O)O)cc3)nc2c(=O)[nH]1` [Folic acid, folic acid], the Tumor growth delay ([2]; folic acid 6 mg/kg ip alone, same schedule) was 7 days and the Tumor growth delay ([2]; folic acid 60 mg/kg ip alone, same schedule) was 12 days.

For vitamin B12, the Tumor growth delay ([2]; vitamin B12 165 mg/kg ip alone, same schedule) was 12 days and the Body weight change ([4]; vitamin B12 administration) was “did not prevent weight gain”.
